Read-outs that look alike come from different tables or passages of the source.

In general, Ki refers to the equilibrium dissociation constant of an inhibitor or competing ligand from its target.

What all share (experiment): biochemical
Common to all, as to type: binding

In assay [1] the target is T1, receptors in rat forebrain (mainly α4β2) (Rattus norvegicus, UniProt P09483+P12390).
T1 construct: from tissue; host or cells: rat forebrain homogenate
The source says:
(§1) In order to assess the steric and hydropathic effects of the C-5 substituents of the pyridine on the binding affinity and subtype-selectivity at neuronal nicotinic acetylcholine receptors. […] The binding affinity ratios for a ligand, calculated from its affinities at an α subunit paired with either the β2 osubunit or the β4 subunit, represents a measure of the selectivity of that ligand with regard to the β subunits.
In Vitro Inhibition of ^3H-Epibatidin Binding
The high affinity binding site for ^3H-epibatidin is most certainly binding to the α4β2 subtype of nicotinic receptors. The identity of the low affinity site is still believed to be unknown.
Tissue preparation: Preparations may be performed at 0-4° C. unless otherwise indicated. […] The tissue suspension may then be centrifuged at 27,000×g for 10 min. The supernatant is then discarded and the pellet may then be washed three times by centrifugation at 27,000×g for 10 min in 20 mL fresh buffer, and the final pellet may be resuspended in fresh buffer (400 mL per g of original tissue) and used for binding assays.
Assay: Aliquots of 2.0 mL homogenate may be added to 0.100 mL of test solution and 0.100 mL of ^3H-epibatidin (0.3 nM, final concentration), mixed and incubated for 60 min at room temperature. […] The amount of radioactivity on the filters may be determined by conventional liquid scintillation counting. Specific binding is total binding minus non-specific binding.

Assay [2] deals with T2, α3β2 nAChR subtype (Rattus norvegicus, UniProt P04757+P12390).
T2 construct: expressed in transfected cells
Source text: as §1

Assay [3] deals with T3, α3β4 nAChR subtype (Rattus norvegicus, UniProt P04757+P12392).
T3 construct: expressed in transfected cells
Source text: as §1

The target of assay [4] is T4, α4β2 nAChR subtype (Rattus norvegicus, UniProt P09483+P12390).
T4 construct: expressed in transfected cells
Source text: as §1

Assay [5] deals with T5, α2β2 nAChR subtype (Rattus norvegicus, UniProt P12389+P12390).
T5 construct: expressed in transfected cells
Source text: as §1

Assay [6] deals with T6, α2β4 nAChR subtype (Rattus norvegicus, UniProt P12389+P12392).
T6 construct: expressed in transfected cells
Source text: as §1

Assay [7] addresses T7, α4β4 nAChR subtype (Rattus norvegicus, UniProt P09483+P12392).
T7 construct: expressed in transfected cells
Source text: as §1

The mark [8] stands for this setting: Ki α4β2*, Table 5, *Rat forebrain, mainly α4β2.
Setting [9] is: Ki α3β2, Table 5, rat nAChR subtypes.
The mark [10] stands for this setting: Ki α3β4, Table 5, rat nAChR subtypes.
[11] abbreviates: Ki α4β2, Table 5, rat nAChR subtypes.
Setting [12] is: Ki α2β2, Table 5, rat nAChR subtypes.
The mark [13] stands for this setting: Ki α2β4, Table 5, rat nAChR subtypes.
The mark [14] stands for this setting: Ki α4β4, Table 5, rat nAChR subtypes.
Setting [15] is: Ki α3β2, Table 4, bivalent analogues.
[16] abbreviates: Ki α3β4, Table 4, bivalent analogues.
[17] abbreviates: Ki α4β2, Table 4, bivalent analogues.
[18] abbreviates: Ki α2β2, Table 4, bivalent analogues.
Setting [19] is: Ki α2β4, Table 4, bivalent analogues.
The mark [20] stands for this setting: Ki α4β4, Table 4, bivalent analogues.

T7 sequence (P12392 21-495): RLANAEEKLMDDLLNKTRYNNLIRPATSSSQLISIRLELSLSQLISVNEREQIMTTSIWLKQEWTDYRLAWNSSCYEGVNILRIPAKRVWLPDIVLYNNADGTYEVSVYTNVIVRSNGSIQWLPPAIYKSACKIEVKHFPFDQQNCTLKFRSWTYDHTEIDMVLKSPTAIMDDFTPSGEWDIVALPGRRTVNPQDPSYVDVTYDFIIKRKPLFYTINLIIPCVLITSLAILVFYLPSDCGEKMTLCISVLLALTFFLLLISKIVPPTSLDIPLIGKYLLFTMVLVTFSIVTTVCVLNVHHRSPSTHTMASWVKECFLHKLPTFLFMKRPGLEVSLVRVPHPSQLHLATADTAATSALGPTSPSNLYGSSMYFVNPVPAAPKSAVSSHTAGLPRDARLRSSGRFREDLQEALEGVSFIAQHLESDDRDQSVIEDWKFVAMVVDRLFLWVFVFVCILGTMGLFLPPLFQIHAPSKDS
T7 sequence (P09483 31-630): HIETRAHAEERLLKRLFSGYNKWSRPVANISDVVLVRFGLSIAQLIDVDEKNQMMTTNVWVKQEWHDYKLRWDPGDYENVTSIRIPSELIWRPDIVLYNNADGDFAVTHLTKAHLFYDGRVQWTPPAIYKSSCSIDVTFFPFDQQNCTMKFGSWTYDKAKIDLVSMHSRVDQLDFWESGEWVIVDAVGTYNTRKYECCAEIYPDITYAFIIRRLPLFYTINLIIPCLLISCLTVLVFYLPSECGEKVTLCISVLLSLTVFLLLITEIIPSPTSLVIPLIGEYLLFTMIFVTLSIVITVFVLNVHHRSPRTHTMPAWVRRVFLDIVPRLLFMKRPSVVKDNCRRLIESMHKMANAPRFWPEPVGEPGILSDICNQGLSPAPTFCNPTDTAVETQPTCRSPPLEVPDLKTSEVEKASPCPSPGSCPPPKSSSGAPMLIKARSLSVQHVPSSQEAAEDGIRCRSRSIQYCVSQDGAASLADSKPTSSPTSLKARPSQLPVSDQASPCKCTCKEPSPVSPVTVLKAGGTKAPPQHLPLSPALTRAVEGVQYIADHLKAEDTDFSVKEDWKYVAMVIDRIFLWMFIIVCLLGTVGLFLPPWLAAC
T6 sequence (P12389 28-511): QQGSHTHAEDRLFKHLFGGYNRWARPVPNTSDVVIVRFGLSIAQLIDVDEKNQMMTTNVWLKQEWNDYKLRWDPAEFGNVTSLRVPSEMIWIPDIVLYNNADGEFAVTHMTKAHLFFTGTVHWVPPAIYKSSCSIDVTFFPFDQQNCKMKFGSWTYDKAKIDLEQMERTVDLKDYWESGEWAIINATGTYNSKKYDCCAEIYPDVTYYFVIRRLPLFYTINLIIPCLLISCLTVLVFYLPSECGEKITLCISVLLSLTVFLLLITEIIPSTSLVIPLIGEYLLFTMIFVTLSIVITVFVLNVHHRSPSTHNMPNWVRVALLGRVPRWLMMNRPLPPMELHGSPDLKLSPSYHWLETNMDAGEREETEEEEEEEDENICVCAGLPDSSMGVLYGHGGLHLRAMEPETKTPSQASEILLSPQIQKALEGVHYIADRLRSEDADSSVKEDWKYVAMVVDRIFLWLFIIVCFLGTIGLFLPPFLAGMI
T6 sequence (P12392 21-495): as the sequence (P12392 21-495) above
T3 sequence (P04757 26-499): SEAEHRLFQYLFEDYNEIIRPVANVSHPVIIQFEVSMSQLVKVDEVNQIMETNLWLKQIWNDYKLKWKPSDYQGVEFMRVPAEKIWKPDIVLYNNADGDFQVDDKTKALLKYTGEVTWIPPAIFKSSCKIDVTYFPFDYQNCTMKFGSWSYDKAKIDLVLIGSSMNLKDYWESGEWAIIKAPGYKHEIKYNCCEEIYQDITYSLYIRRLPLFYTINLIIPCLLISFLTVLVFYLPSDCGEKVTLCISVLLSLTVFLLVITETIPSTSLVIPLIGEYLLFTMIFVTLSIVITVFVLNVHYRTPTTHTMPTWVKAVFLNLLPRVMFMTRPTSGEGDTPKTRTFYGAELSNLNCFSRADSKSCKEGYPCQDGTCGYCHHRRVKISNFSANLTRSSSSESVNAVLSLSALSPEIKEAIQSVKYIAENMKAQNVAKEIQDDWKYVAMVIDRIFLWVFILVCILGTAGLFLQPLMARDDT
T3 sequence (P12392 21-495): as the sequence (P12392 21-495) above
T4 sequence (P12390 25-500): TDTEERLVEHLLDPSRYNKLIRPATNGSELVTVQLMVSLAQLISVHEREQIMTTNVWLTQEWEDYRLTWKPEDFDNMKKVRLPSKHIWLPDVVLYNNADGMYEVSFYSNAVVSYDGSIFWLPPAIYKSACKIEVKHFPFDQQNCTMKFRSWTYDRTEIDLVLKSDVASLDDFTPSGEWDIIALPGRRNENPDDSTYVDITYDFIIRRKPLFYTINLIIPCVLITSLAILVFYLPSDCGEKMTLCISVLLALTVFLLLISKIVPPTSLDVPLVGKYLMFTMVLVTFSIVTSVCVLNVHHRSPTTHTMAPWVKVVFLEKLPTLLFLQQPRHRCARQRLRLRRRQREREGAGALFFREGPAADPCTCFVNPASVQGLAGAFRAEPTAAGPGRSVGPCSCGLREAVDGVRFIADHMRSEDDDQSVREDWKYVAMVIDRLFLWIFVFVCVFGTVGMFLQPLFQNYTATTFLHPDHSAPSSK
T4 sequence (P09483 31-630): as the sequence (P09483 31-630) above
T2 sequence (P12390 25-500): as the sequence (P12390 25-500) above
T2 sequence (P04757 26-499): as the sequence (P04757 26-499) above
T5 sequence (P12390 25-500): as the sequence (P12390 25-500) above
T5 sequence (P12389 28-511): as the sequence (P12389 28-511) above
T1 sequence (P09483 31-630): as the sequence (P09483 31-630) above
T1 sequence (P12390 25-500): as the sequence (P12390 25-500) above

Take `FC1CC2CC(c3ccc(Cl)nc3)C1N2` (stereo not drawn) [Ligand 11, 2-exo-(2-Chloro-5-pyridyl)-6-fluoro-7-azabicyclo[2.2.1]heptane]: the Ki came to 0.668 nM in assay [1] (setting [8]); 0.149 nM in assay [2] (setting [9]); 2.48 nM in assay [3] (setting [10]); 0.328 nM in assay [4] (setting [11]); 0.218 nM in assay [5] (setting [12]); 0.481 nM in assay [6] (setting [13]). In assay [7] (setting [14]), this compound came in with an inhibition constant (Ki) of 0.172 nM.
As for “Decane-1,3-N,N′-bisepibatidine [Ligand 59d]”, the Ki came out at 13.9 nM in assay [1] (Table 5, *Rat forebrain, mainly α4β2, read-out: Ki α4β2*); 6.75 nM in assay [2] (Table 5, rat nAChR subtypes, read-out: Ki α3β2); 67.7 nM in assay [3] (Table 5, rat nAChR subtypes, read-out: Ki α3β4); 10.3 nM in assay [4] (Table 5, rat nAChR subtypes, read-out: Ki α4β2); 5.78 nM in assay [5] (Table 5, rat nAChR subtypes, read-out: Ki α2β2); 24.2 nM in assay [6] (Table 5, rat nAChR subtypes, read-out: Ki α2β4). Moreover, in assay [7] (Table 5, rat nAChR subtypes, read-out: Ki α4β4), the Ki worked out at 18.7 nM.
`Clc1ccc(C2CC3CCC2N3CCCCCCN2C3CCC2C(c2ccc(Cl)nc2)C3)cn1` (stereo not shown) [Ligand 59c]: the Ki in assay [2] (setting [15]) stood at 6.6 nM; in assay [3] (setting [16]) it was 64.7 nM; in assay [4] (setting [17]) it was 7.2 nM; in assay [5] (setting [18]), 4.1 nM; in assay [6] (setting [19]) it was 37.4 nM; in assay [7] (setting [20]), 31.9 nM.
As to `OCCCCC#Cc1cncc(OC[C@@H]2CCCN2)c1` [Ligand 27, 5-(6-Hydroxy-1-hexynyl)-3-(2(S)-pyrrolidinylmethoxy)pyridine], the Ki in assay [1] (setting [8]) stood at 1.15 nM; in assay [2] (setting [9]), 2.69 nM; in assay [3] (setting [10]) it was 16100 nM; in assay [4] (setting [11]), 0.665 nM; in assay [5] (setting [12]) it was 1.51 nM; in assay [6] (setting [13]), 835 nM. In assay [7] (setting [14]), this compound displayed an inhibition constant (Ki) of 778 nM.
For `CN1CCC[C@H]1COc1cncc(C#CCCCCCCCCO)c1` [Ligand 17], the inhibition constant (Ki) is 21.7 nM in assay [1] (Ki Rat forebrain, Table 1, mean of 3 (1, 2: 3 to 6) independent measurements); 52.1 nM in assay [2] (Ki α3β2, Table 1, mean of 3 (1, 2: 3 to 6) independent measurements); 62700 nM in assay [3] (Ki α3β4, Table 1, mean of 3 (1, 2: 3 to 6) independent measurements); 6.5 nM in assay [4] (Ki α4β2, Table 1, mean of 3 (1, 2: 3 to 6) independent measurements); 26.8 nM in assay [5] (Ki α2β2, Table 1, mean of 3 (1, 2: 3 to 6) independent measurements); 7800 nM in assay [6] (Ki α2β4, Table 1, mean of 3 (1, 2: 3 to 6) independent measurements). The same compound yielded a Ki in assay [7] (Ki α4β4, Table 1, mean of 3 (1, 2: 3 to 6) independent measurements) of 3560 nM.
As for `O[C@H]1C[C@H]2N[C@@H]1C[C@@H]2c1ccc(Cl)nc1` (relative stereo) [Ligand 6, 2-exo-(2-Chloro-5-pyridyl)-5-exo-hydroxyl-7-azabicyclo[2.2.1]heptane], the Ki worked out at 69 nM in assay [1] (setting [8]); 19.3 nM in assay [2] (setting [9]); 224 nM in assay [3] (setting [10]); 16.9 nM in assay [5] (setting [12]); 67.5 nM in assay [6] (setting [13]); 72.7 nM in assay [7] (setting [14]).
Turning to `O=C1CC2CC(c3ccc(Cl)nc3)C1N2` (racemic) [Ligand 5], the Ki in assay [2] (read-out: Ki α3β2) was determined as 1500 nM; in assay [3] (read-out: Ki α3β4), 8870 nM; in assay [4] (read-out: Ki α4β2), 2020 nM; in assay [5] (read-out: Ki α2β2), 1010 nM; in assay [6] (read-out: Ki α2β4), 3240 nM; in assay [7] (read-out: Ki α4β4), 3560 nM.
For `Clc1ccc(C2CC3CCC2N3CCCCCCCCCCN2C3CCC2C(c2ccc(Cl)nc2)C3)cn1` (stereo not shown) [Ligand 59d], the Ki in assay [2] (setting [15]) was determined as 6.8 nM; in assay [3] (setting [16]), 67.7 nM; in assay [4] (setting [17]) it was 10.3 nM; in assay [5] (setting [18]), 5.8 nM; in assay [6] (setting [19]), 24.2 nM; in assay [7] (setting [20]), 18.7 nM.
On to `OCCCCC#Cc1cncc(OC[C@@H]2CCN2)c1` [Ligand 26, 5-(6-Hydroxy-1-hexynyl)-3-(2(S)-azetidinylmethoxy)pyridine], for which the Ki in assay [2] (setting [9]) worked out at 0.53 nM; in assay [3] (setting [10]), 4840 nM; in assay [4] (setting [11]), 0.09 nM; in assay [5] (setting [12]) it was 0.06 nM; in assay [6] (setting [13]), 269 nM; in assay [7] (setting [14]), 74 nM.
For the compound `Clc1ccc(C2CC3CCC2N3CCN2C3CCC2C(c2ccc(Cl)nc2)C3)cn1` (stereo not shown) [Ligand 59a], the inhibition constant (Ki) turned out to be 5.6 nM in assay [2] (setting [15]); 11.8 nM in assay [3] (setting [16]); 10.7 nM in assay [4] (setting [17]); 1.3 nM in assay [5] (setting [18]); 2.9 nM in assay [6] (setting [19]); 18 nM in assay [7] (setting [20]).
On to `OC1CC2CC(c3ccc(Cl)nc3)C1N2` (racemic) [Ligand 9], for which the Ki in assay [2] (read-out: Ki α3β2) was found to be 1.36 nM; in assay [3] (read-out: Ki α3β4) it was 27.3 nM; in assay [4] (read-out: Ki α4β2), 0.92 nM; in assay [5] (read-out: Ki α2β2), 1.53 nM; in assay [6] (read-out: Ki α2β4), 5.85 nM; in assay [7] (read-out: Ki α4β4), 5.57 nM.

The record behind these values is patent publication US8030300B2, “Ligands for nicotinic acetylcholine receptors, and methods of making and using them” (priority 2003, dated 2011).
